According to ChEMBL document CHEMBL5365482, “Rational Design of Sulfonyl-γ-AApeptides as Highly Potent HIV-1 Fusion Inhibitors with Broad-Spectrum Activity” (J Med Chem, 2023):

Legend:
[1] = tested on: Human immunodeficiency virus 1; assay: Antiviral activity against HIV1 IIIB infected in human MT2 cells assessed as inhibition of viral growth incubated for 30 mins by ELISA assay; type: functional, organism-based; conditions: Human immunodeficiency virus 1, IIIB, MT2, 0.5 h
[2] = Cytotoxicity against human MT2 cells assessed as inhibition of cell growth measured after 3 days by CCK8 assay; type: toxicity, cell-based; conditions: time 3 day
[3] = Selectivity index, ratio of CC50 for human MT2 cells to IC50 for HIV1 IIIB infected in human MT2 cells; type: toxicity, cell-based; conditions: read-out: Ratio CC50/IC50

Row | SMILES | IC50 [1] | CC50 at 72 h [2] | selectivity ratio [3]
1 | CC[C@@H](C)[C@@H](CN(CC(=O)N[C@@H](CCC(=O)O)CN(CC(=O)N[C@@H](CC(C)C)CN(CC(N)=O)S(=O)(=O)CC(C)C)S(C)(=O)=O)S(=O)(=O)CC(C)C)NC(=O)CN(C[C@H](CCCCN)NC(=O)CN(C[C@H](Cc1ccc(O)cc1)NC(=O)CN(C[C@H](CCC(=O)O)NC(=O)CN(C[C@@H](NC(=O)CN(C[C@H](CCCCN)NC(=O)CN(C[C@H](Cc1c[nH]c2ccccc12)NC(=O)CN(C[C@H](CCC(=O)O)NC(=O)CN(C[C@H](Cc1c[nH]c2ccccc12)NC(=O)CN(C[C@H](CCSC)NC(C)=O)S(=O)(=O)CC(C)C)S(=O)(=O)CC(C)C)S(=O)(=O)c1ccc(C(=O)O)cc1)S(=O)(=O)CC(C)C)S(=O)(=O)CCN)[C@H](C)CC)S(=O)(=O)CC(C)C)S(=O)(=O)c1ccc(C(=O)O)cc1)S(=O)(=O)CC(C)C)S(=O)(=O)CCN | > 40 µM | > 40 µM | –
2 | CC[C@@H](C)[C@@H](CN(CC(=O)N[C@@H](CCC(=O)O)CN(CC(=O)N[C@@H](CC(C)C)CN(CC(N)=O)S(=O)(=O)CC(C)C)S(=O)(=O)c1ccc(C(=O)O)cc1)S(=O)(=O)CC(C)C)NC(=O)CN(C[C@H](CCCCN)NC(=O)CN(C[C@H](Cc1ccc(O)cc1)NC(=O)CN(C[C@H](CCC(=O)O)NC(=O)CN(C[C@@H](NC(=O)CN(C[C@H](CCCCN)NC(=O)CN(C[C@H](Cc1c[nH]c2ccccc12)NC(=O)CN(C[C@H](CCC(=O)O)NC(=O)CN(C[C@H](Cc1c[nH]c2ccccc12)NC(=O)CN(C[C@H](CCSC)NC(C)=O)S(=O)(=O)CC(C)C)S(=O)(=O)CC(C)C)S(=O)(=O)c1ccc(C(=O)O)cc1)S(=O)(=O)CC(C)C)S(=O)(=O)CCN)[C@H](C)CC)S(=O)(=O)CC(C)C)S(=O)(=O)c1ccc(C(=O)O)cc1)S(C)(=O)=O)S(=O)(=O)CCN | > 100 µM | > 100 µM | –
3 | CC[C@@H](C)[C@@H](CN(CC(=O)N[C@@H](CCC(=O)O)CN(CC(=O)N[C@@H](CC(C)C)CN(CC(N)=O)S(=O)(=O)CC(C)C)S(=O)(=O)c1ccc(C(=O)O)cc1)S(=O)(=O)CC(C)C)NC(=O)CN(C[C@H](CCCCN)NC(=O)CN(C[C@H](Cc1ccc(O)cc1)NC(=O)CN(C[C@H](CCC(=O)O)NC(=O)CN(C[C@@H](NC(=O)CN(C[C@H](CCCCN)NC(=O)CN(C[C@H](Cc1c[nH]c2ccccc12)NC(=O)CN(C[C@H](CCC(=O)O)NC(=O)CN(C[C@H](Cc1c[nH]c2ccccc12)NC(C)=O)S(=O)(=O)CC(C)C)S(=O)(=O)c1ccc(C(=O)O)cc1)S(=O)(=O)CC(C)C)S(=O)(=O)CCN)[C@H](C)CC)S(=O)(=O)CC(C)C)S(=O)(=O)c1ccc(C(=O)O)cc1)S(=O)(=O)CC(C)C)S(=O)(=O)CCN | > 100 µM | > 100 µM | –
4 | CC[C@@H](C)[C@@H](CN(CC(=O)N[C@@H](CCC(=O)O)CN(CC(=O)N[C@@H](CC(C)C)CN(CC(N)=O)S(=O)(=O)CC(C)C)S(=O)(=O)c1ccc(C(=O)O)cc1)S(=O)(=O)CC(C)C)NC(=O)CN(C[C@H](CCCCN)NC(=O)CN(C[C@H](Cc1ccc(O)cc1)NC(=O)CN(C[C@H](CCC(=O)O)NC(=O)CN(C[C@@H](NC(=O)CN(C[C@H](CCCCN)NC(=O)CN(C[C@H](Cc1c[nH]c2ccccc12)NC(=O)CN(C[C@H](CCC(=O)O)NC(=O)CN(C[C@H](Cc1c[nH]c2ccccc12)NC(=O)CN(C[C@H](CCSC)NC(C)=O)S(=O)(=O)CC(C)C)S(=O)(=O)CC(C)C)S(=O)(=O)c1ccc(C(=O)O)cc1)S(=O)(=O)CC(C)C)S(=O)(=O)CCN)[C@H](C)CC)S(=O)(=O)CC(C)C)S(C)(=O)=O)S(=O)(=O)CC(C)C)S(=O)(=O)CCN | > 40 µM | > 40 µM | –
5 | CC[C@@H](C)[C@@H](CN(CC(=O)N[C@@H](CCC(=O)O)CN(CC(=O)N[C@@H](Cc1ccc(O)cc1)CN(CC(=O)N[C@@H](CCCCN)CN(CC(=O)N[C@H](CN(CC(=O)N[C@@H](CCC(=O)O)CN(CC(=O)N[C@@H](CC(C)C)CN(CC(N)=O)S(=O)(=O)CC(C)C)S(=O)(=O)c1ccc(C(=O)O)cc1)S(=O)(=O)CC(C)C)[C@H](C)CC)S(=O)(=O)CCN)S(=O)(=O)CC(C)C)S(=O)(=O)c1ccc(C(=O)O)cc1)S(=O)(=O)CC(C)C)NC(=O)CN(C[C@H](CCCCN)NC(=O)CN(C[C@@H](Cc1c[nH]c2ccccc12)NC(=O)CN(C[C@H](CCC(=O)O)NC(=O)CN(C[C@H](Cc1c[nH]c2ccccc12)NC(=O)CN(C[C@H](CCSC)NC(C)=O)S(=O)(=O)CC(C)C)S(=O)(=O)CC(C)C)S(C)(=O)=O)S(=O)(=O)CC(C)C)S(=O)(=O)CCN | > 40 µM | > 40 µM | –
6 | CC[C@@H](C)[C@@H](CN(CC(=O)N[C@@H](CCC(=O)O)CN(CC(=O)N[C@@H](CC(C)C)CN(CC(N)=O)S(=O)(=O)CC(C)C)S(C)(=O)=O)S(=O)(=O)CC(C)C)NC(=O)CN(C[C@H](CCCCN)NC(=O)CN(C[C@H](Cc1ccc(O)cc1)NC(=O)CN(C[C@H](CCC(=O)O)NC(=O)CN(C[C@@H](NC(=O)CN(C[C@H](CCCCN)NC(=O)CN(C[C@H](Cc1c[nH]c2ccccc12)NC(=O)CN(C[C@@H](CCC(=O)O)NC(=O)CN(C[C@H](Cc1c[nH]c2ccccc12)NC(=O)CN(C[C@H](CCSC)NC(C)=O)S(=O)(=O)CC(C)C)S(=O)(=O)CC(C)C)S(C)(=O)=O)S(=O)(=O)CC(C)C)S(=O)(=O)CCN)[C@H](C)CC)S(=O)(=O)CC(C)C)S(C)(=O)=O)S(=O)(=O)CC(C)C)S(=O)(=O)CCN | > 100 µM | > 100 µM | –
7 | CC[C@@H](C)[C@@H](CN(CC(=O)N[C@@H](CCC(=O)O)CN(CC(=O)N[C@H](CO)CN(CC(=O)N[C@@H](CCCCN)CN(CC(=O)N[C@H](CN(CC(=O)N[C@@H](CCC(=O)O)CN(CC(=O)N[C@@H](CC(C)C)CN(CC(N)=O)S(=O)(=O)CC(C)C)S(=O)(=O)c1ccc(C(=O)O)cc1)S(=O)(=O)CC(C)C)[C@H](C)CC)S(=O)(=O)CCN)S(=O)(=O)CC(C)C)S(=O)(=O)c1ccc(C(=O)O)cc1)S(=O)(=O)CC(C)C)NC(=O)CN(C[C@@H](CCCCN)NC(=O)CN(C[C@H](Cc1c[nH]c2ccccc12)NC(=O)CN(C[C@H](CCC(=O)O)NC(=O)CN(C[C@H](Cc1c[nH]c2ccccc12)NC(=O)CN(C[C@H](CCSC)NC(C)=O)S(=O)(=O)CC(C)C)S(=O)(=O)CC(C)C)S(=O)(=O)c1ccc(C(=O)O)cc1)S(=O)(=O)CC(C)C)S(=O)(=O)CCN | > 100 µM | > 100 µM | –
8 | CC[C@H](C)[C@H](NC(=O)[C@H](CC(C)C)NC(=O)[C@H](CCC(=O)O)NC(=O)[C@H](CCC(=O)O)NC(=O)[C@@H](NC(=O)[C@H](CCCCN)NC(=O)[C@H](CCCCN)NC(=O)[C@@H](NC(=O)[C@H](Cc1ccc(O)cc1)NC(=O)[C@H](CCC(=O)O)NC(=O)[C@H](CCC(=O)O)NC(=O)[C@@H](NC(=O)[C@H](CCCCN)NC(=O)[C@H](CCCCN)NC(=O)[C@H](CC(=O)O)NC(=O)[C@H](Cc1cc2ccccc2[nH]1)NC(=O)[C@H](CCC(=O)O)NC(=O)[C@H](CCC(=O)O)NC(=O)[C@H](Cc1cc2ccccc2[nH]1)NC(=O)[C@@H](NC(=O)[C@H](CCSC)NC(C)=O)[C@@H](C)O)[C@@H](C)CC)[C@H](C)O)[C@@H](C)CC)C(=O)N[C@@H](CCCCN)C(=O)N[C@@H](CCCCN)C(=O)N[C@@H](CO)C(N)=O | 0.001 µM | – | –
9 | CC[C@@H](C)[C@@H](CN(CC(=O)N[C@@H](CCC(=O)O)CN(CC(=O)N[C@@H](CC(C)C)CN(CC(N)=O)S(=O)(=O)CC(C)C)S(=O)(=O)c1ccc(C(=O)O)cc1)S(=O)(=O)CC(C)C)NC(=O)CN(C[C@H](CCCCN)NC(=O)CN(C[C@H](Cc1ccc(O)cc1)NC(=O)CN(C[C@H](CCC(=O)O)NC(=O)CN(C[C@@H](NC(=O)CN(C[C@H](CCCCN)NC(=O)CN(C[C@H](Cc1c[nH]c2ccccc12)NC(=O)CN(C[C@H](CCC(=O)O)NC(=O)CN(C[C@H](Cc1c[nH]c2ccccc12)NC(=O)CN(C[C@H](CCSC)NC(C)=O)S(C)(=O)=O)S(=O)(=O)CC(C)C)S(=O)(=O)c1ccc(C(=O)O)cc1)S(=O)(=O)CC(C)C)S(=O)(=O)CCN)[C@H](C)CC)S(=O)(=O)CC(C)C)S(=O)(=O)c1ccc(C(=O)O)cc1)S(=O)(=O)CC(C)C)S(=O)(=O)CCN | 38.9 µM | > 100 µM | > 2.5
10 | CC[C@@H](C)[C@@H](CN(CC(=O)N[C@@H](CCC(=O)O)CN(CC(=O)N[C@@H](CC(C)C)CN(CC(=O)N[C@@H](CCCCN)CN(CC(=O)N[C@@H](CC(C)C)CN(CC(N)=O)S(=O)(=O)CC(C)C)S(=O)(=O)CCN)S(=O)(=O)CC(C)C)S(=O)(=O)c1ccc(C(=O)O)cc1)S(=O)(=O)CC(C)C)NC(=O)CN(C[C@H](CCCCN)NC(=O)CN(C[C@H](Cc1ccc(O)cc1)NC(=O)CN(C[C@H](CCC(=O)O)NC(=O)CN(C[C@@H](NC(=O)CN(C[C@H](CCCCN)NC(=O)CN(C[C@H](Cc1c[nH]c2ccccc12)NC(=O)CN(C[C@H](CCC(=O)O)NC(=O)CN(C[C@H](Cc1c[nH]c2ccccc12)NC(=O)CN(C[C@H](CCSC)NC(C)=O)S(=O)(=O)c1ccc(OC)cc1)S(=O)(=O)CC(C)C)S(=O)(=O)c1ccc(C(=O)O)cc1)S(=O)(=O)CC(C)C)S(=O)(=O)CCN)[C@H](C)CC)S(=O)(=O)CC(C)C)S(=O)(=O)c1ccc(C(=O)O)cc1)S(=O)(=O)CC(C)C)S(=O)(=O)CCN | 15.7 µM | > 100 µM | > 6.3
11 | CC[C@@H](C)[C@@H](CN(CC(=O)N[C@@H](CCC(=O)O)CN(CC(=O)N[C@@H](CC(C)C)CN(CC(=O)N[C@@H](CCCCN)CN(CC(=O)N[C@@H](C)CN(CC(=O)N[C@@H](CCC(=O)O)CN(CC(=O)N[C@@H](CCCCN)CN(CC(=O)N[C@@H](CCCCN)CN(CC(=O)N[C@@H](CCC(=O)O)CN(CC(=O)N[C@@H](CCC(=O)O)CN(CC(=O)N[C@@H](CC(C)C)CN(CC(=O)N[C@@H](CCCCN)CN(CC(N)=O)S(=O)(=O)CCN)S(=O)(=O)CC(C)C)S(=O)(=O)c1ccc(C(=O)O)cc1)S(=O)(=O)c1ccc(C(=O)O)cc1)S(=O)(=O)CCN)S(=O)(=O)CCN)S(=O)(=O)c1ccc(C(=O)O)cc1)S(C)(=O)=O)S(=O)(=O)CCN)S(=O)(=O)CC(C)C)S(=O)(=O)c1ccc(C(=O)O)cc1)S(=O)(=O)CC(C)C)NC(C)=O | > 40 µM | > 40 µM | –
